# Data from PubChem BioAssay (NCI).
#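 Protocol summary: plate cells (96-well), add compound at 5 concentrations, incubate 48 h, interpolate endpoints linearly. Here, GI50 denotes the concentration required for 50% inhibition of growth. At the TGI there is no net growth.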
# Columns and labels:
# Assay in all cases: growth of human tumour cells (NCI), 48 h
# U251 CNS = test system: U251 CNS
# CCRF-CEM leukemia = test system: CCRF-CEM leukemia
# HS 578T breast = test system: HS 578T breast
# UO-31 renal = test system: UO-31 renal
# MCF7 breast = test system: MCF7 breast
# NCI-H226 lung = test system: NCI-H226 lung
# SK-MEL-2 melanoma = test system: SK-MEL-2 melanoma
# RXF 393 renal = test system: RXF 393 renal
# NCI-H23 lung = test system: NCI-H23 lung
# K-562 leukemia = test system: K-562 leukemia
Compound,GI50 (U251 CNS),TGI (U251 CNS),GI50 (CCRF-CEM leukemia),TGI (CCRF-CEM leukemia),GI50 (HS 578T breast),TGI (HS 578T breast),GI50 (UO-31 renal),TGI (UO-31 renal),GI50 (MCF7 breast),TGI (MCF7 breast),GI50 (NCI-H226 lung),TGI (NCI-H226 lung),GI50 (SK-MEL-2 melanoma),TGI (SK-MEL-2 melanoma),GI50 (RXF 393 renal),TGI (RXF 393 renal),GI50 (NCI-H23 lung),TGI (NCI-H23 lung),GI50 (K-562 leukemia),TGI (K-562 leukemia)
ClCc1ccccc1Cn1cnc2c(Cl)ncnc21,2.65 µM,6.11 µM,1.28 µM,3.24 µM,2.28 µM,6.67 µM,2.65 µM,10.4 µM,11.1 µM,> 100 µM,4.59 µM,12.5 µM,2.76 µM,18.1 µM,0.442 µM,2.32 µM,2.02 µM,4.34 µM,1.2 µM,5.13 µM
O=C(c1ccccc1)c1c(C(F)(F)F)n([O-])c2cc(C(F)(F)F)ccc2[n+]1=O,1.54 µM,2.97 µM,0.6 µM,2.44 µM,1.8 µM,4.29 µM,1.32 µM,2.67 µM,1.42 µM,3.29 µM,1.83 µM,4.01 µM,2.09 µM,3.93 µM,1.34 µM,2.92 µM,1.54 µM,4.9 µM,0.231 µM,0.559 µM
COc1cc(OC)c(OC)cc1/C=C/c1cnnc2ccccc12,–,> 10 µM,–,> 10 µM,–,> 10 µM,–,> 10 µM,–,> 10 µM,–,> 10 µM,–,> 10 µM,–,> 10 µM,–,> 10 µM,–,> 10 µM
Cn1nc(C(F)(F)F)c(-c2cc(C(F)(F)F)cc(C(F)(F)F)c2)c1-c1ccc(OCc2ccc(Cl)cc2)cc1O,2.38 µM,12.1 µM,2.26 µM,14.9 µM,2.19 µM,6.78 µM,1.89 µM,4.28 µM,2.23 µM,10.4 µM,2.1 µM,5.67 µM,1.73 µM,4.09 µM,2.32 µM,6.76 µM,1.64 µM,6.93 µM,0.62 µM,10.1 µM
O=c1oc2cc(OC/C(=N/O)c3ccc(F)cc3)ccc2c2ccccc12,20.9 µM,45.5 µM,23 µM,> 100 µM,28.8 µM,63.1 µM,18.7 µM,35.2 µM,14.9 µM,38.4 µM,22.3 µM,40.6 µM,21.3 µM,40 µM,14.7 µM,32.5 µM,19.1 µM,34.2 µM,20.1 µM,46.3 µM
N#C/C(=N\Nc1ccccc1)C(=O)Nc1cc(-c2ccccc2)nn1-c1ccccc1,3.14 µM,16 µM,2.5 µM,> 100 µM,3.5 µM,> 100 µM,2.58 µM,> 100 µM,2.46 µM,> 100 µM,2.8 µM,> 100 µM,2.19 µM,9.94 µM,2.26 µM,7.69 µM,2.73 µM,60.5 µM,2.43 µM,> 100 µM
